Reference: article PMC3761975 (Current drug safety, 2010)
Like-named read-outs stand apart in the source and are kept apart here.

Assays:
CYP3A4 [1] = settings: cited from earlier work
CYP3A4 [2] = target: T1, CYP3A4 (Homo sapiens, UniProt P08684); experiment: CYP3A4 fluorometric microtiter plate inhibition assay
CYP2C9, CYP3A4 = experiment: in vitro; settings: human, pH 7.5
CYP1A2 [3] = target: T2, CYP1A2 (Homo sapiens, UniProt P05177); experiment: CYP1A2 fluorometric microtiter plate inhibition assay
T2 sequence (P05177 1-516): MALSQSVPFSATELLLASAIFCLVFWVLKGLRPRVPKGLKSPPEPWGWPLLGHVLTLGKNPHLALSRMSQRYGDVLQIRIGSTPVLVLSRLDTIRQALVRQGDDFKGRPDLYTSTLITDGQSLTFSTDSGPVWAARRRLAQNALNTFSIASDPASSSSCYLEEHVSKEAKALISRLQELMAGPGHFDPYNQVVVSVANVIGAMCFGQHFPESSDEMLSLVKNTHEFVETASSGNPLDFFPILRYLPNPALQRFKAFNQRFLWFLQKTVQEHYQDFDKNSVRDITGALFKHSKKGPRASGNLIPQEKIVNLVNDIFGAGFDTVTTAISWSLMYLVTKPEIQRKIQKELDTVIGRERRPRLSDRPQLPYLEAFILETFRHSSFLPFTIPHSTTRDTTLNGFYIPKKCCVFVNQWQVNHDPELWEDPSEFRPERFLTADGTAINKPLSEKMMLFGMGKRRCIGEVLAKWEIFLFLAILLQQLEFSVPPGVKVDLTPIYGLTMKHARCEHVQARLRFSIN

CYP2C9 [4] = target: T3, CYP2C9 (Homo sapiens, UniProt P11712); experiment: CYP2C9 fluorometric microtiter plate inhibition assay
T3 sequence (P11712 whole entry): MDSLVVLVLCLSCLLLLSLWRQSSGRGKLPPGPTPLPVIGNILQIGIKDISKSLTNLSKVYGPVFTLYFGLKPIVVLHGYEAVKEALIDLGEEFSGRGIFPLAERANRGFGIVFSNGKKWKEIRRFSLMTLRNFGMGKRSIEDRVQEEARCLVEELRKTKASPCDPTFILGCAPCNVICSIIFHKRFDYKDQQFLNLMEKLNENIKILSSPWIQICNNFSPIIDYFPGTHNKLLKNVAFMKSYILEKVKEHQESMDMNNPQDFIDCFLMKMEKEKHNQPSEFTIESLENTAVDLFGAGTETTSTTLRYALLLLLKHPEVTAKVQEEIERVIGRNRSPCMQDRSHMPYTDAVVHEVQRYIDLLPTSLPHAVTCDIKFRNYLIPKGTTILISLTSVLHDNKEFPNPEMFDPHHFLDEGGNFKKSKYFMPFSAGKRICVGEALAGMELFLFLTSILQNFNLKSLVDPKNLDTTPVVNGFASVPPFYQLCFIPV

CYP2D6 [5] = target: T4, CYP2D6 (Homo sapiens, UniProt P10635); experiment: CYP2D6 fluorometric microtiter plate inhibition assay
T4 sequence (P10635 whole entry): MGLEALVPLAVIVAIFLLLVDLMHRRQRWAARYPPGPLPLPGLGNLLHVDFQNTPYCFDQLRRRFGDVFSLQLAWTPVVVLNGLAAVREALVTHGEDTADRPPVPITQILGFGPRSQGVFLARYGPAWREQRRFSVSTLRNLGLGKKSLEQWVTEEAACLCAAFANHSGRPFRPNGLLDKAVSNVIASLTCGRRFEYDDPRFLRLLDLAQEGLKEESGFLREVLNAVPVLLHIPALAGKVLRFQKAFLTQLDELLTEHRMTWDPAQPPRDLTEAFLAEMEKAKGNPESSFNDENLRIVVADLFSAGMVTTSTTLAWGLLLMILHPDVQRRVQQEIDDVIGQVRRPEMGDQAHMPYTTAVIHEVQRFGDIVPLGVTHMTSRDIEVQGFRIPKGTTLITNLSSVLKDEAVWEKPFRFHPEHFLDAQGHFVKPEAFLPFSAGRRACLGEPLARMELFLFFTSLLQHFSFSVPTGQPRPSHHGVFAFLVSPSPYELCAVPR

[6] = tested on: CYP1A2, CYP2C9, CYP2D6, CYP3A4; experiment: CYP isozyme bioassays, results stated across several isozymes; settings: human, pH 7.5
CYP3A4 [7] = target: T1, CYP3A4; settings: recombinant enzyme
CYP1A2 [8] = target: T2, CYP1A2; settings: recombinant enzyme
CYP2D6 [9] = target: T4, CYP2D6; settings: recombinant enzyme
CYP2C9 [10] = target: T3, CYP2C9; settings: recombinant enzyme
CYP 1A2 = settings: cited from earlier work
CYP 2D6 = settings: read-out: Literature IC50, CYP 2D6; published limits; cited from earlier work
CYP 2C9 = settings: read-out: Literature IC50, CYP 2C9; published limits; cited from earlier work

T1 sequence (P08684 whole entry): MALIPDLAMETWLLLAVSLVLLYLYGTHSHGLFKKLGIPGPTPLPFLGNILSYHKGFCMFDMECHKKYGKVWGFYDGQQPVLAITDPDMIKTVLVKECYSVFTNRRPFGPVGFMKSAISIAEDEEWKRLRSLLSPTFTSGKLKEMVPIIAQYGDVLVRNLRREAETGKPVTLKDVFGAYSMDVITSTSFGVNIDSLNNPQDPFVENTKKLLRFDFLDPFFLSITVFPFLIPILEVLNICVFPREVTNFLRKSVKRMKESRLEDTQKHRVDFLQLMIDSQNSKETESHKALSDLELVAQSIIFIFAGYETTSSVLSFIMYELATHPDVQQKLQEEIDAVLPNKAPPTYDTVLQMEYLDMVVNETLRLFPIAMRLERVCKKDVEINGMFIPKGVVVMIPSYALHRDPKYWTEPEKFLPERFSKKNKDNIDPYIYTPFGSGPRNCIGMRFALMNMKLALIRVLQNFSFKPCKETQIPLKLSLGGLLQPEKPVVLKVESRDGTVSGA

IC50 (CYP3A4 [2]) [µM]	IC50 (CYP1A2 [3]) [µM]	IC50 (CYP2C9 [4]) [µM]	IC50 (CYP2D6 [5]) [µM]	SMILES	also measured
				CC(=O)O[C@@H]1C[C@@]23C[C@@]24CC[C@H](O[C@@H]2OC[C@@H](O)[C@H](O)[C@H]2O)C(C)(C)[C@@H]4CC[C@H]3[C@]2(C)C[C@@H]3O[C@]4(C[C@@H](C)[C@@H]3[C@@]12C)OC[C@@]1(C)O[C@@H]41 [26-deoxyactein]	IC50 (CYP3A4 [1]; read-out: IC50 for CYP3A4 inhibition, Tsukamoto et al.): 100 µM
9.7	7.2	8.3	9	COc1cc(/C=C/C(=O)O[C@H](C(=O)O)[C@](O)(Cc2ccc(O)c(O)c2)C(=O)O)ccc1O [CAA, Cimicifugic acid A]	IC50 [6]: 1.8 to 12.6 µM
9.8	7.35	12.5	12.6	COc1ccc(/C=C/C(=O)O[C@H](C(=O)O)[C@](O)(Cc2ccc(O)c(O)c2)C(=O)O)cc1O [CAB, Cimicifugic acid B]	IC50 [6]: 1.8 to 12.6 µM
				CC(=O)O[C@@H]1C[C@@]23C[C@@]24CC[C@H](O[C@@H]2OC[C@@H](O)[C@H](O)[C@H]2O)C(C)(C)[C@@H]4CC[C@H]3[C@]2(C)C[C@@H]3O[C@@]4(C[C@@H](C)[C@@H]3[C@@]12C)OC[C@@]1(C)O[C@@H]41 [Deoyxactein, 23-epi-26-deoxyactein]	IC50 (CYP3A4 [7]): 28.7 µM; IC50 (CYP1A2 [8]): > 100 µM; IC50 (CYP2D6 [9]): 100 µM; IC50 (CYP2C9 [10]): 25.9 µM
7.2	1.8	7.1	5.4	O=C(/C=C/c1ccc(O)c(O)c1)O[C@H](C(=O)O)[C@](O)(Cc1ccc(O)c(O)c1)C(=O)O [Fukinolic acid, fukinolic acid]	IC50 [6]: 1.8 to 12.6 µM
				Oc1ccc(/C=C/c2cc(O)cc(O)c2)cc1 [resveratrol]	IC50 (CYP 1A2; read-out: Inhibitory IC50 in CYP 1A2): 1.89 µM

SMILES	IC50 (CYP3A4 [2]) [µM]	IC50 (CYP1A2 [3]) [µM]	IC50 (CYP2C9 [4]) [µM]	IC50 (CYP2D6 [5]) [µM]	also measured
CC(=O)O[C@@H]1C[C@@]23C[C@@]24CC[C@H](O[C@@H]2OC[C@@H](O)[C@H](O)[C@H]2O)C(C)(C)[C@@H]4CC[C@H]3[C@]2(C)C[C@@H]3O[C@]4(C[C@@H](C)[C@@H]3[C@@]12C)O[C@H](O)[C@@]1(C)O[C@@H]41 [Actein, actein]	35.2	> 100	25	51.1	IC50 (CYP2C9, CYP3A4): 16.9 to 33.8 µM
